Laboratory results: ChEMBL document CHEMBL1201862, “PubChem BioAssay data set” (2004)
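Dose response: 5 concentrations. Exposure: 48 h. Format: 96-well plates. Endpoint: linear interpolation; highest concentration if not reached. GI50: concentration for 50% inhibition of growth.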 Active and inactive are the calls of the source. Cut-off read from the data, not from the text of the source: active = GI50 up to about 1.1 µM and inactive = higher.

How the values were obtained:
Assay in all cases: growth of human tumour cells (NCI), 48 h
786-0 = test system: 786-0
CAKI-1 = test system: CAKI-1
DU-145 = test system: DU-145
EKVX = test system: EKVX
HCT-15 = test system: HCT-15
Hs-578T = test system: Hs-578T
IGROV-1 = test system: IGROV-1
M14 = test system: M14
MDA-MB-231 = test system: MDA-MB-231
Malme-3M = test system: Malme-3M
NCI-H23 = test system: NCI-H23
OVCAR-8 = test system: OVCAR-8
RXF 393 = test system: RXF 393
SF-295 = test system: SF-295
SNB-19 = test system: SNB-19
SW-620 = test system: SW-620
TK-10 = test system: TK-10
UACC-62 = test system: UACC-62
HCT-116 = test system: HCT-116
SNB-75 = test system: SNB-75

Compound | GI50 (786-0) | GI50 (CAKI-1) | GI50 (DU-145) | GI50 (EKVX) | GI50 (HCT-15) [µM] | GI50 (Hs-578T) | GI50 (IGROV-1) | GI50 (M14) | GI50 (MDA-MB-231) | GI50 (Malme-3M) | GI50 (NCI-H23) | GI50 (OVCAR-8) | GI50 (RXF 393) | GI50 (SF-295) | GI50 (SNB-19) | GI50 (SW-620) | GI50 (TK-10) | GI50 (UACC-62) | GI50 (HCT-116) | GI50 (SNB-75)
COc1ccc(NC2=CC(=O)C(=O)c3ccccc32)nn1 | 1.86 µM (inactive) | 2.19 µM (inactive) | 1.45 µM (inactive) | 3.1 µM (inactive) | 0.423 | 1.99 µM (inactive) | 1.69 µM (inactive) | 0.281 µM (active) | 3.69 µM (inactive) | 0.661 µM (active) | 1.91 µM (inactive) | 1.67 µM (inactive) | 1.36 µM (inactive) | 0.822 µM (active) | 2.9 µM (inactive) | 1.29 µM (inactive) | 3.56 µM (inactive) | 1.34 µM (inactive) |  | 
CSc1nc(N)c(NC2OC(CO)C(O)C2O)c(=O)[nH]1 (configuration not stated) | > 100 µM (inactive) | > 100 µM (inactive) | > 100 µM (inactive) | > 100 µM (inactive) | > 100 | > 100 µM (inactive) | > 100 µM (inactive) | > 100 µM (inactive) | > 100 µM (inactive) | > 100 µM (inactive) |  | > 100 µM (inactive) | > 100 µM (inactive) | > 100 µM (inactive) | > 100 µM (inactive) | > 100 µM (inactive) | > 100 µM (inactive) | > 100 µM (inactive) | > 100 µM (inactive) | > 100 µM (inactive)
CC(=O)c1cc2ccccc2[n+]([O-])c1N | > 100 µM (inactive) | > 100 µM (inactive) | > 100 µM (inactive) | > 100 µM (inactive) | > 100 | > 100 µM (inactive) | > 100 µM (inactive) | > 100 µM (inactive) | > 100 µM (inactive) | > 100 µM (inactive) | > 100 µM (inactive) | > 100 µM (inactive) | > 100 µM (inactive) | > 100 µM (inactive) |  |  | > 100 µM (inactive) | > 100 µM (inactive) | > 100 µM (inactive) | 
CN1CC=C(c2c(N)nc(N)[nH]c2=O)CC1 | > 100 µM (inactive) | > 100 µM (inactive) | > 100 µM (inactive) | > 100 µM (inactive) | > 100 | > 100 µM (inactive) | > 100 µM (inactive) | > 100 µM (inactive) | > 100 µM (inactive) | 80.2 µM (inactive) | > 100 µM (inactive) | > 100 µM (inactive) | > 100 µM (inactive) | > 100 µM (inactive) | > 100 µM (inactive) | > 100 µM (inactive) |  | > 100 µM (inactive) | > 100 µM (inactive) | 65.6 µM (inactive)
O=C(Cc1ccccc1)NCCc1ccc(O)c(O)c1 | 93.3 µM (inactive) |  | > 100 µM (inactive) | > 100 µM (inactive) | 54.1 | > 100 µM (inactive) | 77.1 µM (inactive) | > 100 µM (inactive) | 37.2 µM (inactive) | > 100 µM (inactive) | 52.6 µM (inactive) | > 100 µM (inactive) | > 100 µM (inactive) | > 100 µM (inactive) | > 100 µM (inactive) | > 100 µM (inactive) | > 100 µM (inactive) | 48.9 µM (inactive) | > 100 µM (inactive) | > 100 µM (inactive)
O=C1CSC(c2c[nH]c3ccccc23)N1c1ccc(Cl)cc1 (configuration not stated) | > 100 µM (inactive) |  | > 100 µM (inactive) | 59.7 µM (inactive) | > 100 | > 100 µM (inactive) | > 100 µM (inactive) | > 100 µM (inactive) | > 100 µM (inactive) |  | > 100 µM (inactive) | > 100 µM (inactive) | > 100 µM (inactive) | > 100 µM (inactive) | > 100 µM (inactive) | > 100 µM (inactive) | > 100 µM (inactive) | > 100 µM (inactive) | > 100 µM (inactive) | 37.1 µM (inactive)
O=[N+]([O-])/C=C/c1cn(CCCCCn2cc(/C=C/[N+](=O)[O-])c3ccccc32)c2ccccc12 | 0.392 µM (active) | 17.7 µM (inactive) | 2.19 µM (inactive) | 11.6 µM (inactive) | 2.17 | 1.87 µM (inactive) | 2.23 µM (inactive) | 1.44 µM (inactive) | 1.95 µM (inactive) | 3.54 µM (inactive) | 4.02 µM (inactive) | 3.27 µM (inactive) | 0.582 µM (active) | 9.89 µM (inactive) | 6.73 µM (inactive) | 0.682 µM (active) | 1.82 µM (inactive) | 6.95 µM (inactive) | 0.283 µM (active) | 
COC(=O)c1c(O)ccc2c1c1c(n2Cc2ccccc2Cl)C(=O)c2ccccc2C1=O | 16.6 µM (inactive) | 13.7 µM (inactive) | 15.5 µM (inactive) | 16.9 µM (inactive) | 12.7 | 21.6 µM (inactive) | 13.6 µM (inactive) | 15.5 µM (inactive) | 15.3 µM (inactive) | 17 µM (inactive) | 13.2 µM (inactive) | 16 µM (inactive) | 16.3 µM (inactive) | 14.6 µM (inactive) | 16 µM (inactive) |  | 16.1 µM (inactive) | 14.8 µM (inactive) | 10.5 µM (inactive) | 
C#CCOC(=O)[C@@H](C)c1ccc2cc(OC)ccc2c1 | 71.9 µM (inactive) | > 100 µM (inactive) | > 100 µM (inactive) | 66.2 µM (inactive) | 28.4 | > 100 µM (inactive) | > 100 µM (inactive) | > 100 µM (inactive) | > 100 µM (inactive) |  | 63.5 µM (inactive) | > 100 µM (inactive) | 86.5 µM (inactive) | > 100 µM (inactive) | > 100 µM (inactive) | > 100 µM (inactive) | > 100 µM (inactive) | > 100 µM (inactive) | > 100 µM (inactive) | 34.3 µM (inactive)
Brc1ccc(C2(N3CCCCC3)CCCCC2)s1 | > 100 µM (inactive) | > 100 µM (inactive) | 56.6 µM (inactive) | 76.6 µM (inactive) |  | 36.1 µM (inactive) | 22.2 µM (inactive) | 24.4 µM (inactive) | 32 µM (inactive) | 29.3 µM (inactive) | 37.3 µM (inactive) |  | 14.3 µM (inactive) | 35.6 µM (inactive) | 73.1 µM (inactive) | 31.8 µM (inactive) | 37.5 µM (inactive) | 35.5 µM (inactive) | > 100 µM (inactive) | 
O=c1c2ccccc2nnn1-c1n[nH]c2ccccc12 | > 100 µM (inactive) | > 100 µM (inactive) | > 100 µM (inactive) | > 100 µM (inactive) | > 100 | > 100 µM (inactive) | > 100 µM (inactive) | > 100 µM (inactive) | > 100 µM (inactive) | > 100 µM (inactive) | > 100 µM (inactive) |  | > 100 µM (inactive) | > 100 µM (inactive) | > 100 µM (inactive) | > 100 µM (inactive) | > 100 µM (inactive) | > 100 µM (inactive) | > 100 µM (inactive) | > 100 µM (inactive)
CCOC(=O)c1c(NC(=S)Nc2ccc(C)cc2)sc2c1CCN(C)C2 | > 100 µM (inactive) | > 100 µM (inactive) | > 100 µM (inactive) | > 100 µM (inactive) | > 100 | > 100 µM (inactive) | > 100 µM (inactive) | > 100 µM (inactive) | > 100 µM (inactive) |  | > 100 µM (inactive) | > 100 µM (inactive) | > 100 µM (inactive) | > 100 µM (inactive) | > 100 µM (inactive) |  | > 100 µM (inactive) | > 100 µM (inactive) | > 100 µM (inactive) | < 0.01 µM (active)
CC[C@H](C)[C@@H]([C@@H](CC(=O)N1CCC[C@H]1[C@H](OC)[C@@H](C)C(=O)NCCc1ccccc1)OC)N(C)C(=O)C(NC(=O)[C@H](C(C)C)N(C)C)C(C)C (some centres not stated) | 0.00021 µM (active) | 0.00216 µM (active) | 0.000227 µM (active) | 0.000964 µM (active) | 0.00201 | 0.000446 µM (active) | 0.000363 µM (active) | 0.000203 µM (active) | 0.000526 µM (active) | 0.001 µM (active) | 0.000314 µM (active) | 0.000333 µM (active) | 0.000174 µM (active) |  | 0.000395 µM (active) | 0.000249 µM (active) | 0.000676 µM (active) | 0.000275 µM (active) | 0.000255 µM (active) | 0.000275 µM (active)
O=C(NCCCc1cn[nH]c(=O)n1)c1cccc2nc3ccccc3nc12 | 40.7 µM (inactive) | > 100 µM (inactive) | 63 µM (inactive) | > 100 µM (inactive) | > 100 | > 100 µM (inactive) | > 100 µM (inactive) | > 100 µM (inactive) | 27.8 µM (inactive) | 36.5 µM (inactive) | > 100 µM (inactive) | 61.9 µM (inactive) | 41.5 µM (inactive) | 31.7 µM (inactive) | > 100 µM (inactive) | > 100 µM (inactive) | 36.5 µM (inactive) | > 100 µM (inactive) | 42 µM (inactive) | 
O=C1c2c(ccc3c2CCCC3)CC1Cc1ccc2c(c1)CCCC2 (configuration not stated) | 64 µM (inactive) |  | 83.4 µM (inactive) | 45.5 µM (inactive) | 36.1 | 20 µM (inactive) | > 100 µM (inactive) | 35.7 µM (inactive) | 37.2 µM (inactive) | 54.8 µM (inactive) | 39.5 µM (inactive) | 88.3 µM (inactive) | 14.3 µM (inactive) | 33.8 µM (inactive) | > 100 µM (inactive) | 61.7 µM (inactive) | > 100 µM (inactive) | 48 µM (inactive) | 25.5 µM (inactive) | 4.68 µM (inactive)
